Active and inactive are the calls of the source.
Experiments:
[1] = biological target: Calpain-2 catalytic subunit (Sus scrofa, UniProt P43367); assay: m-calpain protease blockers, concentration series – biochemical, fluorogenic peptide substrate, dose response (AID 1420); type: functional
Beta-galactosidase = Beta-galactosidase (Escherichia coli, UniProt Q8VNN2); assay: PubChem AID 485352; type: functional
[2] = HPDE-C7 pancreatic duct cell viability loss – fluorescence, HTS (AID 430); type: functional, cell-based; settings: Homo sapiens
[3] = viability loss of HPDE-C7K cells – cell-based, fluorescence, HTS, primary screen (AID 431); type: functional; settings: Homo sapiens
[4] = HEK-293T viability loss after treatment – luminescence, T-cell screen hits, cytotoxicity control for TCR NF-kB inhibitor project, dose response (AID 489026); type: functional, cell-based;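 also: cells exposed to compound about 14 hours before the viability readout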
[5] = biological target: T1, Type-1 angiotensin II receptor (Homo sapiens, UniProt P30556); assay: antagonism of angiotensin II type 1 receptor – cell-based, uHTS hits, selectivity assay for APJ receptor antagonist project, dose response (AID 463214); type: functional;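 also: antagonist potency against angiotensin II stimulated AT1 response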
T1 sequence (P30556 whole entry): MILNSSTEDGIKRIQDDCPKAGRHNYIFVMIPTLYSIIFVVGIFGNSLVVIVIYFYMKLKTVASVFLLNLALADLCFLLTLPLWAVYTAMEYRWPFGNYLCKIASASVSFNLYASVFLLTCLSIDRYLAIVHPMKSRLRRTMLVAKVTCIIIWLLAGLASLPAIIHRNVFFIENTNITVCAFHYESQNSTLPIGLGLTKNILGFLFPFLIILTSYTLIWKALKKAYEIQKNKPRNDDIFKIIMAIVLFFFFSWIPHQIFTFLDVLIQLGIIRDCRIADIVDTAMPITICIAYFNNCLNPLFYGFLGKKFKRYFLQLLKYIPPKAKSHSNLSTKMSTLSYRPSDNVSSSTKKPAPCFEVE

[6] = M. tuberculosis growth inhibition, HTS (AID 449762); type: functional
Cytochrome P450 2C19 = Cytochrome P450 2C19 (Homo sapiens, UniProt P33261); assay: Cytochrome panel assay with activity outcomes. Panel member name: p450-cyp2c19 Compounds with AC50 equal or less than 10 uM are considered active; type: functional; settings: read-out: AC50
Sequence of Cytochrome P450 2C19 (P33261 whole entry): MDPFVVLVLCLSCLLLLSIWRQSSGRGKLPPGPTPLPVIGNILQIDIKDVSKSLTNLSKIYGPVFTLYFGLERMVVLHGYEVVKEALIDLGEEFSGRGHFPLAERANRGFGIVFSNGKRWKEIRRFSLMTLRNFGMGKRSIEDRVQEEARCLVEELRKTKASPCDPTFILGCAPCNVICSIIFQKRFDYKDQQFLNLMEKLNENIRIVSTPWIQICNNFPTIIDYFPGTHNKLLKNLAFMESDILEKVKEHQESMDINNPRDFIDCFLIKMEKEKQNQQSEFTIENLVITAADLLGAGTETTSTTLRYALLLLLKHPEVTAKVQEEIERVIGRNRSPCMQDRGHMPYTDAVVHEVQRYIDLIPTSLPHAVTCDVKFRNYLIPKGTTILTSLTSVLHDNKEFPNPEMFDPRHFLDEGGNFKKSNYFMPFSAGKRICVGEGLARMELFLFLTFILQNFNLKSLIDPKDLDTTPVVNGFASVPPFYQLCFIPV

Cytochrome P450 2C9 = Cytochrome P450 2C9 (Homo sapiens, UniProt P11712)
Sequence of Cytochrome P450 2C9 (P11712 whole entry): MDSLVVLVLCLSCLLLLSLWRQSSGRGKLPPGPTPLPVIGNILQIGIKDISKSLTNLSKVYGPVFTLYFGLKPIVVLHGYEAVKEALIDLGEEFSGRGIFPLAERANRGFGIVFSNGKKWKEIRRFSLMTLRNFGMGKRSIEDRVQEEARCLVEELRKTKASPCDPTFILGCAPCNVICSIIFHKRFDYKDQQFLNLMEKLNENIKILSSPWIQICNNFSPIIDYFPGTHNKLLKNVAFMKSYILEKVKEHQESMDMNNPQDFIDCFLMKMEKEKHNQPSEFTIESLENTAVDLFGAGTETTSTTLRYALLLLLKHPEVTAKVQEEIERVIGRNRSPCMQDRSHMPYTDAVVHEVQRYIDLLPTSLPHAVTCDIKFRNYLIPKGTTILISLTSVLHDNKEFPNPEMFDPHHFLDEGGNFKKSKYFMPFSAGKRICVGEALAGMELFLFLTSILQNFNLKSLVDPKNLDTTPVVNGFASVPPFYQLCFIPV

Cytochrome P450 3A4 = Cytochrome P450 3A4 (Homo sapiens, UniProt P08684);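 also: CYP3A4 tested as one member of a cytochrome P450 panel screen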
Sequence of Cytochrome P450 3A4 (P08684 whole entry): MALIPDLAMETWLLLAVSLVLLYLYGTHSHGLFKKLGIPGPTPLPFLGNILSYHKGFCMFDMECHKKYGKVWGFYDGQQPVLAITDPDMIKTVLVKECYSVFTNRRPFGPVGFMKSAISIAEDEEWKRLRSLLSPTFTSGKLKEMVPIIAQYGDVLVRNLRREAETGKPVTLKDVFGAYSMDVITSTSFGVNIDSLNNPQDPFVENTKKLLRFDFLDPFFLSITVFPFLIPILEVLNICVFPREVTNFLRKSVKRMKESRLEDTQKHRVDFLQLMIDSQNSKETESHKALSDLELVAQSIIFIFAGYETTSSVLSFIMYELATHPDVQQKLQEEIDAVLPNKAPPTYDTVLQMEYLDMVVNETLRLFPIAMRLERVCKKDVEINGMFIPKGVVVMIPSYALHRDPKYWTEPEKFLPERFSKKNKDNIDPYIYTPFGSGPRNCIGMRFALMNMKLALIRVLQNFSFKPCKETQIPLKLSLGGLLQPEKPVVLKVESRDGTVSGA

[7] = Trypanosoma cruzi growth suppression in host cells – NIH3T3 host cells, beta-gal luminescence, confirmation (AID 2044); type: functional, cell-based;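 also: intracellular parasites grown in NIH/3T3 mouse fibroblasts as host cells; luminescent beta-galactosidase reporter signal from transgenic T. cruzi replicating inside host cells; inhibitors lower the luminescence signal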
[8] = NIH3T3 cell viability loss – ATP luminescence, mouse fibroblasts, counter-screen, dose response (AID 2010); type: functional, cell-based;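 also: cells exposed to compound for about 90 hours before reading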
Ephrin type-A receptor 4 = Ephrin type-A receptor 4 (Mus musculus, UniProt Q03137); assay: EphA4 ligand-binding antagonists – biochemical, colorimetric, mouse EphA4, primary screen (AID 689); type: functional
Sequence of Ephrin type-A receptor 4 (Q03137 whole entry): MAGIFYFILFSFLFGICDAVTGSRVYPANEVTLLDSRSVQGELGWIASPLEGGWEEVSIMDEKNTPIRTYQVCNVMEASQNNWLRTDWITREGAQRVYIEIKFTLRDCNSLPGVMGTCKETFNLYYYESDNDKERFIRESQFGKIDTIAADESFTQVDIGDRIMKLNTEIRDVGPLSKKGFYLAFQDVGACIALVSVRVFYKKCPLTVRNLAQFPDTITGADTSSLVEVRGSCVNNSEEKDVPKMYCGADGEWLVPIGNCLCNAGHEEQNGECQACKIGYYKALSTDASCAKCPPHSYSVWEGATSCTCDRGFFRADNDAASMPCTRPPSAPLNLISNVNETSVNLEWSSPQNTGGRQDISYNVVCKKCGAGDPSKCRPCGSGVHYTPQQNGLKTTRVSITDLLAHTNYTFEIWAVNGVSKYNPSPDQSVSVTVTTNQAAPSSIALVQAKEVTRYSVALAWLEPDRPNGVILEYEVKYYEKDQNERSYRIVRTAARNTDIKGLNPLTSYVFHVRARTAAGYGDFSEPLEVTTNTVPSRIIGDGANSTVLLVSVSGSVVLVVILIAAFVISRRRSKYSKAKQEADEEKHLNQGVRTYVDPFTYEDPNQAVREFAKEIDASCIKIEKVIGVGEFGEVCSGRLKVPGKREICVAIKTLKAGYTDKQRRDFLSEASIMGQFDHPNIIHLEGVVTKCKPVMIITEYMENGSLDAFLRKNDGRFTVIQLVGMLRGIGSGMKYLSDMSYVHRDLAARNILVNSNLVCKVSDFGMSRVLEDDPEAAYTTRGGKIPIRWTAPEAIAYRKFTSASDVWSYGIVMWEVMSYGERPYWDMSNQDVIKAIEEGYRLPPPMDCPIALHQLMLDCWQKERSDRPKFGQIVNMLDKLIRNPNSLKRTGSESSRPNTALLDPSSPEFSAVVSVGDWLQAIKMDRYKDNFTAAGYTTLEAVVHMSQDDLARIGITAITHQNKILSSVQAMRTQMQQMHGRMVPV

[9] = alpha-synuclein stem-loop luciferase translation blockers – H4 neuroglioma cells, luminescence, confirmation (AID 1988); type: functional, cell-based
[10] = NIH-3T3 fibroblast cytotoxicity, dose response, cytotoxicity control, cell-based, fluorescence, Alamar Blue, secondary assay (AID 2327); type: functional;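 also: NIH-3T3 mouse fibroblasts cultured with fluconazole at 8 µg/mL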
[11] = luciferase reporter signal suppression in cells – H4 neuroglioma cells, luminescence, dose response (AID 1990); type: functional, cell-based
[12] = Luminescence Cell-Based Dose Response HTS to Identify Inhibitors of 5'UTR Stem-Loop Driven Prion Protein mRNA Translation in H4 Neuroglioblastoma Cells. [Related pubchem assays: 1827 (Project Summary), 1813 (Primary HTS)]; type: functional
[13] = fluconazole-exposed Candida albicans growth modulators – fluorescence, retest, confirmation (AID 2467); type: functional, cell-based
[14] = biological target: T2, Mannose-6-phosphate isomerase (Homo sapiens, UniProt P34949); assay: MPI enzyme activity inhibition – biochemical, fluorescence intensity, coupled assay, primary screen (AID 1209)
T2 sequence (P34949 whole entry): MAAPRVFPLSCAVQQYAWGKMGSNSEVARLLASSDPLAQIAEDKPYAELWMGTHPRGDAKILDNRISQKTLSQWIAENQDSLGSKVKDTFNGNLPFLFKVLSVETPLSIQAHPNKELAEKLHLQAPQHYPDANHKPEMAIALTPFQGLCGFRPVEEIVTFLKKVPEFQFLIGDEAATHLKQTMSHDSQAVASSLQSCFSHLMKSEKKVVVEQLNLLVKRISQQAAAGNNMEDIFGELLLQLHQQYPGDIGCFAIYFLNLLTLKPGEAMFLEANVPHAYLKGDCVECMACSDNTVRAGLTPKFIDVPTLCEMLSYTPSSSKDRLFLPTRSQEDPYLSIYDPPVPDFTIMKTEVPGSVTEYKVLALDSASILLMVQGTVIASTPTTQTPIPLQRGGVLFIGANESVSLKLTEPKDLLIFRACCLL

[15] = HIV-1 Vif–A3G interaction blockers – biochemical, TR-FRET, GST-Vif 1-94, biotin-A3G peptide, dose response retest, primary screen (AID 1117319); type: functional;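 also: TR-FRET signal of purified GST-Vif binding a biotinylated A3G peptide; inhibitors lower the FRET signal by blocking Vif and A3G binding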
Estrogen receptor = biological target: T3, Estrogen receptor (Homo sapiens, UniProt P03372);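 also: potency for inhibiting coactivator peptide recruitment to the receptor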
T3 sequence (P03372 whole entry): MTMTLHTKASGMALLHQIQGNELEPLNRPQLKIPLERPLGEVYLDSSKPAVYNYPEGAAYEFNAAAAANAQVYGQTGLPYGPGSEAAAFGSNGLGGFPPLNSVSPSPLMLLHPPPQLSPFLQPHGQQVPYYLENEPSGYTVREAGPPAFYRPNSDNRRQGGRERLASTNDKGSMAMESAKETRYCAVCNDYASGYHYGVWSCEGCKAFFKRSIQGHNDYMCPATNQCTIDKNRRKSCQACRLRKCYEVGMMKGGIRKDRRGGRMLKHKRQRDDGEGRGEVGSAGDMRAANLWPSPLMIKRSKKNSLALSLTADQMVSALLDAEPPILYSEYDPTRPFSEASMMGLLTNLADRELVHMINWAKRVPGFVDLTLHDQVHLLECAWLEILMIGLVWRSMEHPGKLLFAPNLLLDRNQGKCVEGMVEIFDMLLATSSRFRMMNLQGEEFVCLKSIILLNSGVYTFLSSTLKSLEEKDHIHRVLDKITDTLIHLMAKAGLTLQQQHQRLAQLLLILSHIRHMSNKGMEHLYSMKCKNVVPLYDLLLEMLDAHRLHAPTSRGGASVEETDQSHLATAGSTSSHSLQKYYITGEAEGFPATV

Cytochrome P450 1A2 = biological target: T4, Cytochrome P450 1A2 (Homo sapiens, UniProt P05177);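 also: PubChem cytochrome P450 panel assay, CYP1A2 panel member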
T4 sequence (P05177 whole entry): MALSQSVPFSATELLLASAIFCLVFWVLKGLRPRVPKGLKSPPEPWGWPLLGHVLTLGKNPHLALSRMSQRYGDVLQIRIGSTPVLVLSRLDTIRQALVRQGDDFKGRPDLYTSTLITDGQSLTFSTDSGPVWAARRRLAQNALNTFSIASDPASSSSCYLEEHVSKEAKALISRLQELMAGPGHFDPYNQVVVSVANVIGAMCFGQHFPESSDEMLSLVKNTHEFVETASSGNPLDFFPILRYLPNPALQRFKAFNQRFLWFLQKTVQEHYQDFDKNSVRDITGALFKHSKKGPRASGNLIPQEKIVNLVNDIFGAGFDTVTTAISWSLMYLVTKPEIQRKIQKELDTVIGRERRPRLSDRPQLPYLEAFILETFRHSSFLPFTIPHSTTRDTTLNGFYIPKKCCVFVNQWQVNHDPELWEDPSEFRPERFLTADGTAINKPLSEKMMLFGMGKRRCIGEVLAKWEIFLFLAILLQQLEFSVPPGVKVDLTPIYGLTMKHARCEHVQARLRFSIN

[16] = viability loss in human Jurkat cells – cell-based, luminescence, cytotoxicity control for P. falciparum gametocyte viability project, dose response (AID 1117277); type: functional;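 also: potency reflects loss of cellular ATP meaning fewer viable cells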
[17] = viability inhibitors of stage V gametocytes – luminescence, dose response (AID 1117278); type: functional, cell-based;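 also: gametocytes exposed to compound for 24 hours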

Sequence of Calpain-2 catalytic subunit (P43367 whole entry): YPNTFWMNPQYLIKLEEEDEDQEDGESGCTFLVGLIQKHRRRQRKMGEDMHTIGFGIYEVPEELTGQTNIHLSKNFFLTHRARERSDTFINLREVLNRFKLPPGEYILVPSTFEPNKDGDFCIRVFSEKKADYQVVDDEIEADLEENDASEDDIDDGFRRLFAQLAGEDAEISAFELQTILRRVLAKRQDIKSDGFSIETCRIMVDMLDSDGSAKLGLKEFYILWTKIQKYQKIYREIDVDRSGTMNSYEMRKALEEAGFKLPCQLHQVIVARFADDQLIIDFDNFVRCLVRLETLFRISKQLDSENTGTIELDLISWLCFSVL
Sequence of Beta-galactosidase (Q8VNN2 whole entry): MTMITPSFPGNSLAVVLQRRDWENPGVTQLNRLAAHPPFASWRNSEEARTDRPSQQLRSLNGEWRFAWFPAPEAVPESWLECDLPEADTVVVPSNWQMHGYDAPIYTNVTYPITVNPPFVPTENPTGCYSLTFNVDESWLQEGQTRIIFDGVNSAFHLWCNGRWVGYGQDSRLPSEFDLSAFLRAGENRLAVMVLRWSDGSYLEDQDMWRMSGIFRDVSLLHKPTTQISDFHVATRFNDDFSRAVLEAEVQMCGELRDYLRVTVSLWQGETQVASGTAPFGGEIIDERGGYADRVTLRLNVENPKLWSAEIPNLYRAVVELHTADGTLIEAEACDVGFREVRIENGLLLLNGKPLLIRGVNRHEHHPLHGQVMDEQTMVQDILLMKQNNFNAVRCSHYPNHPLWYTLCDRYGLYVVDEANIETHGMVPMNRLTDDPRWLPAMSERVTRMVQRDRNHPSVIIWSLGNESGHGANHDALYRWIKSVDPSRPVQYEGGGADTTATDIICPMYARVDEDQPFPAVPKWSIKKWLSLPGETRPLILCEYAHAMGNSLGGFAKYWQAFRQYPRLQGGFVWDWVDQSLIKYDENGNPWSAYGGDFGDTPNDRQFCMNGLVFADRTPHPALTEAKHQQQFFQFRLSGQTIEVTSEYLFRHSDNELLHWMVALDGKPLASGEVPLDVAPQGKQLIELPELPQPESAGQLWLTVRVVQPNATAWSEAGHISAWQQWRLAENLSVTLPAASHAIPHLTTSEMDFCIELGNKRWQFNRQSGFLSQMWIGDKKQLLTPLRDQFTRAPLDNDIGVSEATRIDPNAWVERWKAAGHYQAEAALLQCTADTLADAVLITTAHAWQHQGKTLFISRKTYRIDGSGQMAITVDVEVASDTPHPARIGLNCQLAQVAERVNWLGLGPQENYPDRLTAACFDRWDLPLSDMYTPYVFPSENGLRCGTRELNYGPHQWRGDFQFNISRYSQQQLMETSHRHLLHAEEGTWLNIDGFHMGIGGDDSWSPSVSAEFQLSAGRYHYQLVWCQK

For `Cc1ccc2nc(NC(=O)CN(C)S(=O)(=O)c3cccc4nsnc34)sc2c1`, the IC50 [1] was > 50 µM (not active).

With `CCOC(=O)/C=C/S(=O)(=O)c1ccc(NC(C)=O)cc1` the EC50 (Beta-galactosidase) was > 40 µM (inactive), the EC50 [2] was 8.93 µM (active) and the EC50 [3] was 10.4 µM (active). For the same compound, the IC50 [4] was > 80 µM (inactive) and the IC50 [5] was 9.22 µM (active).

In the case of `COc1ccc(N2CN=C3SCC(=O)N3C2)cc1`, the IC50 [6] is reported as > 100 µM (active).

For `CCOC(=O)C1=C(c2ccccc2)N=c2s/c(=C\c3cc(OC)c(OC)c(OC)c3)c(=O)n2C1c1cccs1` (centres undefined), the AC50 (Cytochrome P450 2C19) was 0.631 µM (inconclusive), the AC50 (Cytochrome P450 2C9) was 1.26 µM (inconclusive) and the AC50 (Cytochrome P450 3A4) was 7.08 µM (inconclusive). The EC50 [7] was 1.29 µM (active), the EC50 [8] was > 60 µM (not active) and the IC50 (Ephrin type-A receptor 4) was 1.49 µM (active).

With `CCOc1ccc(-c2cc(C)[n+](CCN(CC)CC)c(-c3ccc(OCC)cc3)c2)cc1.[O-][Cl+3]([O-])([O-])[O-]` the EC50 [9] was 8.8 µM (active), the EC50 (cells) was 0.089 µM (active) and the EC50 [10] was 98.5 µM (active). For the same compound, the EC50 [11] was 10.2 µM (active), the EC50 [12] was 14.6 µM (active) and the EC50 [13] was 0.258 µM (active). The EC50 [7] was < 0.1 µM (active) and the EC50 [8] was > 60 µM (not active).

For `CCOC(=O)c1ccc(N2C(=O)CC(SCC(=O)Nc3ccc(S(N)(=O)=O)cc3)C2=O)cc1` (centres undefined), the IC50 [14] was 28.1 µM (active).

In the case of `CC(=O)c1ccc(S(=O)(=O)Nc2cccc(-c3ccc(N4CCOCC4)nn3)c2)cc1`, the IC50 [15] is reported as > 100 µM (active).

In the case of `Cc1cc(C)n(CC(O)COc2ccccc2)n1` (centres undefined), the AC50 (Cytochrome P450 2C9) is reported as 0.0355 µM (inconclusive), the IC50 (Estrogen receptor) is reported as > 50 µM (not active) and the AC50 (Cytochrome P450 1A2) is reported as 15.8 µM (inconclusive). For the same compound, the AC50 (Cytochrome P450 3A4) was 15.8 µM (inconclusive).

For `O=C(NCCCN1CCC(Cc2ccccc2)CC1)C1CCN(S(=O)(=O)N2CCC3(CC2)OCCO3)CC1`, the IC50 [16] was > 83.3 µM (inactive) and the IC50 [17] was > 109 µM (inactive).

Reference: ChEMBL document CHEMBL1201862, “PubChem BioAssay data set” (2004)
